# Assay results taken from patent US12310954B2, “Salivary gland regeneration” (The Regents of the University of California, priority 2018, dated 2025).
# Experiments:
# [1] = tested on: acinar cells of the sublingual gland; test: Intraglandular injection of cevimeline, acinar cell proliferation; type: in vivo, mouse; settings: 10 mg/kg (20 μL) directly into sublingual gland, 18 hrs, non-irradiated mice, vs saline
# Experimental: Given our previous findings that systemic administration of a muscarinic mimetic promotes salivary gland proliferation, we next determined if local intraglandular injection was also able to promote a mitotic response. To determine if cevimeline could act locally on the salivary gland to induce acinar cell proliferation we injected cevimeline at 10 mg/kg of body weight (20 μL) directly into the sublingual gland and measured proliferation after 18 hrs.
# For Intraglandular injection of cevimeline, mice were administered with analgesics 30 min prior to surgery (carprofen and buprenorphine; Patterson Veterinary and Buprenex; 0.1 mg/kg and […] (IP), respectively) and anaesthetized via inhalation with 2% isoflurane/O2mix. The surgical area was shaved and prepared for incision with alternating iodine and alcohol washes, followed by local anesthetic (lidocaine; Hospira Inc., 8 mg/kg). […]
# Tissue section immunofluorescence analysis was processed as follows. […] Antibodies were detected using Cy2-, Cy3- or Cy5-conjugated secondary Fab fragment antibodies (1:300, Jackson Laboratories) and nuclei stained using Hoescht 33342 (1:1000, AnaSpec Inc.). […] Slides were mounted using Fluoromount-G (SouthernBiotech) and fluorescence was analyzed using a Leica Sp5 confocal microscope. Image processing and quantification was performed using NIH ImageJ software.
# [2] = In vitro cevimeline release from alginate hydrogels (LC-MS/MS); type: physicochemical
# Experimental: A Shimadzu Prominence LC-20ADXR system interfaced to a 4500 QTrap mass spectrometer with an electrospray ionization (ESI) source was operated for LC-MS/MS analysis. The chromatographic separation was achieved using a Phenomenex KineteX® C18 (50×3 mm, 2.6 μm) column coupled with a Phenomenex SecurityGuard C18 guard column (3 mm×2.0 mm). The column temperature was controlled at 30° C. Mobile phase A was 0.1% Trifluoroacetic acid in water and mobile phase B was acetonitrile (ACN). The injection volume was 10 μL and the flow rate was 0.5 mL/min. The gradient condition was: (time/minute, % mobile phase B): (0, 15), (1, 15), (2.5, 22.8), (2.6, 98), (5, 98), (5.1, 15), and (8, 15). The source parameters included curtain gas of 45 psi, ion spray voltage of 4000 V, ion source temperature of 550, and medium collision gas.
# Standard working solutions of cevimeline were prepared over the range from of 10.0-10000.0 ng/mL in methanol. Working solutions were spiked into 100 μL of DMEM to generate the standards or QC samples. The final concentrations of the calibration standards were 0.5, 1.0, 2.5, 5.0, 10.0, 25.0, 50.0 and 100.0, 250.0 and 500 ng/mL in DMEM. The QC samples were 0.9, 4, 30.0 and 400.0 ng/mL.
# For the sample preparation step, to each 100 μL DMEM, 10 μL IS working solution (1000 ng/mL) was added. 96-Well Protein Precipitation Filter Plate Sigma-Aldrich (St. Louis, MO) and 300 μl of MeOH:ACN (15:85) were used for protein precipitation. 200 μl of NH4OH 5% was added to 200 μl of the sample after filtration and 10 μl was injected to the LCMS system. The bioanalytical method was validated in accordance with current U.S. FDA guidelines including selectivity, linearity, intra- and interday precision and accuracy, recovery and stability (“Guidance for Industry, Bioanalytical Method Validation,”2018 fda.gov/media/70858/download).
# In vitro cevimeline (CV) release from OA hydrogels was tested by creating 1 mm×4 mm disks with either a 2 or 5% oxidation at a weight/volume of 2, 5, or 10%. Alginate+cevimeline (Abcam, ab141317) hydrogels were created by resuspending the drug at the desired concentration in the DMEM prior to mixing with the lyophilized OA, subsequent crosslinking proceeds as described above to encapsulate the drug with the OA hydrogel. Three 4 mm alginate+cevimeline hydrogels were placed in 0.4 μm transwell in a 12-well plate containing 3.2 ml of DMEM incubating in 37° C. with slow continuous agitation (100 RPM). Sample media (3 ml DMEM) was collected and replenished at 4 hours, 1-, 2-, 3-, 4-, 5-, and 7 days (D). Three hydrogels were pooled together with an average of 3-5 separate replicates (samples) at each time point. Sample media was stored at −20° C. until mass spectroscopy analysis was performed. […]
# [3] = tested on: acinar cells of irradiated salivary glands; test: Cell proliferation in salivary glands after gamma-radiation induced damage; type: in vivo, mouse; settings: 14 days after 10Gy, 18 hrs, vs saline
# [4] = cited from earlier work
# [5] = long term oral use in patients; cited from earlier work
# [6] = tested on: SOX2^+ cells in SLG explants; test: Ex vivo lineage tracing in adult salivary gland explants (Sox2CreERT2; Rosa26mTmG); type: cell-based, mouse; settings: 200 nM, 48 h
# Experimental: Salivary glands from Sox2^CreERT2; Rosa26^mTmG mice (recombination induced 24 h prior) were mechanically dissected into <1-mm pieces, placed in complete media in the presence or absence of 200 nM CCh (Sigma-Aldrich) or 10 μM 4-DAMP (Tocris), and cultured for 48 h before being fixed for immunofluorescence. In some cases, mice were irradiated with three doses of 5 Gy before glands were taken for culture as above.
# Whole-mount salivary gland and tissue section immunofluorescence analysis has been previously described (Knox et al., 2010). In brief, tissue was fixed with either ice-cold acetone/methanol (1:1) for 1 min or 4% PFA for 20-30 min followed by permeabilizing with 0.1-0.3% Triton X. Tissue was blocked overnight at 4° C. with 10% Donkey Serum (Jackson Laboratories, ME), 1% BSA (Sigma-Aldrich), and MOM IgG-blocking reagent (Vector Laboratories, CA) in 0.01% PBS-Tween 20. […] Antibodies were detected using Cy2-, Cy3-, or Cy5-conjugated secondary Fab fragment antibodies (Jackson Laboratories) and nuclei stained using Hoechst 33342 (1:1,000, Sigma-Aldrich). Fluorescence was analyzed using a Leica Sp5 confocal microscope and NIH ImageJ software.
# For immunofluorescent analyses (e.g., FIG. 2D), cells positively stained for markers were counted using ImageJ. Acinar cell size was measured using ImageJ. […]
# [7] = tested on: human salivary gland (SMG or PG) explants; test: Human salivary gland explant culture with CCh, qPCR; type: cell-based; settings: 200 nM, 4 h, vs untreated
# Excerpt: Adult human salivary gland was obtained from discarded, non-identifiable tissue with consent from patients undergoing neck resection (age 28-78, male and female). Informed consent was given by all subjects and experiments conformed to the principles set out in the WMA Declaration of Helsinki and the Department of Health and Human Services Belmont Report. Patients had either had no irradiation therapy (non-IR) or fractionated radiation therapy (IR)<2 years prior to surgery. Tissue was immediately placed in 4% PFA, RNAlater (Qiagen) or DMEM (Thermo Fisher) for live cell explant culture. For ex vivo culture, non-IR tissue was dissected into <1-mm pieces and cultured in serum-free DMEM/F12 containing holotransferrin and ascorbic acid. For explant assays, the tissue (SMG and PG) was incubated with 50-200 nM CCh (200 nM CCh shown in results) for 4 h before being lysed for RNA. For salivary gland explant-parasympathetic submandibular ganglia […] co-culture, tissue was dissected into <1-mm pieces and cultured on a floating filter above serum-free media. E13 mouse parasympathetic submandibular ganglia were isolated as previously described (Knox et al., 2010). One parasympathetic submandibular ganglion per explant was placed next to the human salivary gland and cultured for 7 days and either fixed for immunofluorescent analysis or lysed for RNA.
# RNA was isolated from whole tissue using RNAqueous Micro Kit (Ambion). Total RNA samples were DNase-treated (Ambion) prior to cDNA synthesis using SuperScript reagents (Invitrogen, CA). SYBR green qPCR was performed using 5 ng (mouse) or 4-10 ng (human) of cDNA and primers designed using Primer3 and Beacon Designer software or described on PrimerBank (pga.mgh.harvard.edu/primerbank/). Melt curves and primer efficiency were determined as previously described (Hoffman et al., 2002). Gene expression was normalized to the housekeeping genes S18 and S29 (Rps18 and Rsp29) or GAPDH for mouse and GAPDH for human and to the corresponding experimental control. Reactions were run in triplicate and experiments performed 2-3 times.
smiles,measurement,setting,value
CC1OC2(CS1)CN1CCC2CC1 (stereo not shown) [cevimeline],acinar cell proliferation,[1],significantly increased
same,release rates with different starting drug loading,"[2]; 2% OA hydrogels at 5 wt %, different initial cevimeline loading per disk",remain relatively consistent
same,cevimeline released by 2 days,"[2]; from OA alginate hydrogels (2 or 5% OA; 2, 5 or 10 wt %)",over 85±5%
same,day by which all cevimeline had been released,[2]; from OA hydrogels,≤ 4 days
same,duration of sustained release,[2]; from alginate hydrogel,2 days
same,proliferation of acinar cells in irradiated mice,[3]; local (intraglandular) 10 mg/kg,increased
same,proliferation of acinar cells in irradiated mice,[3]; systemic (i.p.) 10 mg/kg,increased
same,pKA,[4],9.5
same,salivary gland function,[5],improves salivary gland function
"C[N+](C)(C)CCOC(N)=O [CCh, carbachol]",GFP^+ clones,[6]; healthy (no IR) SLG tissue,increase
same,cell proliferation (Ki67^+ cells),[6]; healthy SLG tissue,increase
same,GFP^+ cells in IR explants,"[6]; irradiated SLG explants, compared to IR alone",increased
same,expression of AQP3,[7]; n=4 individuals,significantly increased
same,expression of AQP5,[7]; n=4 individuals,significantly increased
same,expression of CHRM1,[7]; n=4 individuals,significantly increased
same,expression of CHRM3,[7]; n=4 individuals,significantly increased
same,expression of MIST1,[7]; n=4 individuals,significantly increased
same,expression of SOX2,[7]; n=4 individuals,significantly increased
same,KRT19 gene expression,[7],increase
same,expression of ductal marker EGFR,[7],remained unchanged
same,expression of ductal marker KRT7,[7],remained unchanged
same,expression of ductal marker KRT8,[7],remained unchanged
